Type in all cases: in vivo
For assay [1], the system named is Amaranthus retroflexus (AMARE). Briefly: Post-emergence biological efficacy, glasshouse pot test. Particulars: 312 h, 1,000 g/ha, evaluated after 13 days, 100=total damage, 0=no damage, read-out: Percentage damage caused to weed species, post-emergence, AMARE. Put shortly: (§1)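 Post-emergence spray, 1000 or 250 g/ha, acetone/water 50:50 + 0.5% Tween 20; plants 8 d old from sowing; glasshouse 24/16 °C, 14 h light, 65% RH, watered twice daily; visual damage 0–100 at 13 d.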

Assay [2] deals with Solanum nigrum (SOLNI). The description is as above. Particulars: 312 h, 1,000 g/ha, evaluated after 13 days, 100=total damage, 0=no damage, read-out: Percentage damage caused to weed species, post-emergence, SOLNI. Summed up: as §1
Assay [3] concerns Alopecurus myosuroides (ALOMY). Described as above. The settings on record: 312 h, 1,000 g/ha, evaluated after 13 days, 100=total damage, 0=no damage, read-out: Percentage damage caused to weed species, post-emergence, ALOMY. Put shortly:
as §1

The subject of assay [4] is Echinochloa crus-galli (ECHCG). The assay is described as above. The settings on record: 312 h, 1,000 g/ha, evaluated after 13 days, 100=total damage, 0=no damage, read-out: Percentage damage caused to weed species, post-emergence, ECHCG. Summed up: as §1
Assay [5] has as its system Setaria faberi (SETFA). Described as above. The settings on record: 312 h, 1,000 g/ha, evaluated after 13 days, 100=total damage, 0=no damage, read-out: Percentage damage caused to weed species, post-emergence, SETFA. Summed up: as §1
Assay [6] has as its system Ipomea hederaceae (IPOHE). The description is as above. The settings on record: Ipomoea hederacea, 312 h, 1,000 g/ha, evaluated after 13 days, 100=total damage, 0=no damage, read-out: Percentage damage caused to weed species, post-emergence, IPOHE. Summed up:
as §1

Assay [7] has as its system Amaranthus retroflexus (AMARE). Briefly: Pre-emergence biological efficacy, glasshouse pot test. The settings on record: 312 h, 1,000 g/ha, evaluated after 13 days, 100=total damage, 0=no damage, read-out: Percentage damage caused to weed species, pre-emergence, AMARE. Put shortly: (§2)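 Seeds sown in standard soil were sprayed one day after sowing with compound in acetone/water (50:50) plus 0.5% Tween 20 at 1000 or 250 g/ha. Pots stayed in the glasshouse at 24/16 °C day/night, 14 h light, 65% humidity. Damage was scored after 13 days (0 = none, 100 = total).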

Assay [8] relates to Solanum nigrum (SOLNI). The description is as above. Particulars: 312 h, 1,000 g/ha, evaluated after 13 days, 100=total damage, 0=no damage, read-out: Percentage damage caused to weed species, pre-emergence, SOLNI. Put shortly:
as §2

Assay [9] concerns Alopecurus myosuroides (ALOMY). The description is as above. The settings on record: 312 h, 1,000 g/ha, evaluated after 13 days, 100=total damage, 0=no damage, read-out: Percentage damage caused to weed species, pre-emergence, ALOMY. Summed up:
as §2

Assay [10] has as its system Echinochloa crus-galli (ECHCG). Described as above. Particulars: 312 h, 1,000 g/ha, evaluated after 13 days, 100=total damage, 0=no damage, read-out: Percentage damage caused to weed species, pre-emergence, ECHCG. Put shortly:
as §2

Assay [11] relates to Setaria faberi (SETFA). Described as above. Particulars: 312 h, 1,000 g/ha, evaluated after 13 days, 100=total damage, 0=no damage, read-out: Percentage damage caused to weed species, pre-emergence, SETFA. Summed up:
as §2

Assay [12] concerns Ipomea hederaceae (IPOHE). The assay is described as above. Particulars: Ipomoea hederacea, 312 h, 1,000 g/ha, evaluated after 13 days, 100=total damage, 0=no damage, read-out: Percentage damage caused to weed species, pre-emergence, IPOHE. Put shortly: as §2

For the compound `COC(=O)c1nc(Cl)cc(NCC2CCCO2)c1Cl` (stereo not drawn) [Compound 70-2, 3,6-Dichloro-4-(tetrahydrofuran-2-ylmethylamino)-pyridine-2-carboxylic acid methyl ester], the pest or weed control at 1000 g/ha in assay [1] was 100%; in the assay on Solanum nigrum (SOLNI) [2], 100%; in assay [3] it was 40%; in assay [4], 30%; in the assay on Setaria faberi (SETFA) [5], 60%; in assay [6], 70%. For the same compound, the pest or weed control at 1000 g/ha was 100% in assay [7]; 100% in the assay with Solanum nigrum (SOLNI) [8]; 30% in [9]; 20% in [10]; 80% with Setaria faberi (SETFA) [11]; 70% in [12].

With `COC(=O)c1nc(Cl)cc(NCc2ccccc2[N+](=O)[O-])c1Br` [Compound 15-17, 3-Bromo-6-chloro-4-[(2-nitrophenylmethyl)-amino]-pyridine-2-carboxylic acid methyl ester], the pest or weed control at 1000 g/ha in assay [1] was found to be 80%; in the assay with Solanum nigrum (SOLNI) [2], 90%; in assay [3] it was 50%; in [4], 30%; in the assay on Setaria faberi (SETFA) [5] it was 80%; in [6] it was 80%. The pest or weed control at 1000 g/ha turned out to be 100% in [7]; 90% in the assay on Solanum nigrum (SOLNI) [8]; 40% in [9]; 20% in [10]; 60% with Setaria faberi (SETFA) [11]; 90% in assay [12].

Consider `COC(=O)c1nc(Cl)c(Cl)c(NCc2ncccc2Cl)c1Br` [Compound 32-41, 3-Bromo-4-[(3-chloro-pyridin-2-ylmethyl)-amino]-5,6-dichloro-pyridine-2-carboxylic acid methyl ester], for which the pest or weed control at 1000 g/ha in [1] was 90%; with Solanum nigrum (SOLNI) [2], 90%; in assay [3], 20%; in assay [4] it was 20%; with Setaria faberi (SETFA) [5], 60%; in assay [6], 70%. The pest or weed control at 1000 g/ha in assay [7] is 90%; in the assay on Solanum nigrum (SOLNI) [8] it was 80%; in [9] it was 0%; in assay [10] it was 0%; in the assay with Setaria faberi (SETFA) [11] it was 0%; in [12], 80%.

On to `COC(=O)c1nc(Cl)cc(NCc2ccc3c(c2)OCO3)c1Cl` [Compound 24-2, 3,6-Dichloro-4-[(3,4-methylenedioxy-phenylmethyl)-amino]-pyridine-2-carboxylic acid methyl ester], for which the pest or weed control at 1000 g/ha in assay [1] was determined as 100%; in the assay on Solanum nigrum (SOLNI) [2] it was 100%; in assay [3] it was 50%; in [4] it was 20%; with Setaria faberi (SETFA) [5], 80%; in assay [6], 70%. In addition, the pest or weed control at 1000 g/ha in assay [7] is 100%; in the assay on Solanum nigrum (SOLNI) [8] it was 100%; in assay [9], 10%; in [10], 0%; with Setaria faberi (SETFA) [11] it was 70%; in assay [12], 80%.

Turning to `COC(=O)c1nc(-c2ccc(Cl)c(N(C)C)c2F)cc(NCc2ccco2)c1Cl` [Compound 26-245, 3-Chloro-6-(4-chloro-3-dimethylamino-2-fluoro-phenyl)-4-[(furan-2-ylmethyl)-amino]-pyridine-2-carboxylic acid methyl ester], the pest or weed control at 1000 g/ha was found to be 100% in [1]; 90% in the assay with Solanum nigrum (SOLNI) [2]; 40% in assay [3]; 50% in [4]; 60% in the assay on Setaria faberi (SETFA) [5]; 60% in assay [6]. In addition, the pest or weed control at 1000 g/ha amounted to 100% in assay [7]; 60% with Solanum nigrum (SOLNI) [8]; 10% in assay [9]; 30% in assay [10]; 30% in the assay with Setaria faberi (SETFA) [11]; 60% in assay [12].

For the compound `C=Cc1c(NCc2ncccc2C)cc(Cl)nc1C(=O)OC` [Compound 33-12, 6-Chloro-3-ethenyl-4-[(3-methyl-pyridin-2-ylmethyl)-amino]-pyridine-2-carboxylic acid methyl ester], the pest or weed control at 1000 g/ha worked out at 100% in assay [1]; 90% with Solanum nigrum (SOLNI) [2]; 80% in assay [3]; 80% in assay [4]; 90% in the assay with Setaria faberi (SETFA) [5]; 70% in [6]. Further, the pest or weed control at 1000 g/ha in assay [7] was found to be 100%; in the assay with Solanum nigrum (SOLNI) [8], 100%; in [9] it was 70%; in assay [10], 80%; in the assay with Setaria faberi (SETFA) [11], 80%; in assay [12], 100%.

`C=Cc1c(NCc2ccco2)cc(-c2ccc(Cl)c(N(C)C)c2F)nc1C(=O)OC` [Compound 26-255, 6-(4-Chloro-3-dimethyl-amino-2-fluoro-phenyl)-3-ethenyl-4-[(furan-2-ylmethyl)-amino]-pyridine-2-carboxylic acid methyl ester]: the pest or weed control at 1000 g/ha in assay [1] is 20%; in the assay on Solanum nigrum (SOLNI) [2] it was 70%; in [3] it was 0%; in assay [4], 0%; with Setaria faberi (SETFA) [5], 0%; in [6], 10%. Further, the pest or weed control at 1000 g/ha in assay [7] was 30%; in the assay with Solanum nigrum (SOLNI) [8], 70%; in [9], 10%; in [10], 20%; in the assay on Setaria faberi (SETFA) [11] it was 10%; in assay [12], 10%.

For the compound `COC(=O)c1nc(Cl)cc(NCC2CCCCCCC2)c1Cl` [Compound 69-2, 4-Cyclooctylmethyl-amino-3,6-dichloro-pyridine-2-carboxylic acid methyl ester], the pest or weed control at 1000 g/ha in assay [1] stood at 100%; with Solanum nigrum (SOLNI) [2], 90%; in [3], 10%; in assay [4], 0%; with Setaria faberi (SETFA) [5], 0%; in [6], 70%. The pest or weed control at 1000 g/ha is 90% in assay [7]; 100% in the assay on Solanum nigrum (SOLNI) [8]; 20% in [9]; 10% in [10]; 10% in the assay on Setaria faberi (SETFA) [11]; 80% in [12].

`C=Cc1c(NCc2ccccc2)cc(Cl)nc1C(=O)OC` [Compound 2-12, 6-Chloro-3-ethenyl-4-phenylmethyl-amino-pyridine-2-carboxylic acid methyl ester]: the pest or weed control at 1000 g/ha is 100% in [1]; 100% with Solanum nigrum (SOLNI) [2]; 60% in [3]; 50% in assay [4]; 80% with Setaria faberi (SETFA) [5]; 70% in assay [6]. For the same compound, the pest or weed control at 1000 g/ha in assay [7] stood at 100%; in the assay on Solanum nigrum (SOLNI) [8] it was 100%; in assay [9] it was 80%; in assay [10], 30%; in the assay on Setaria faberi (SETFA) [11] it was 80%; in assay [12], 80%.

Source of the values: patent US20120100990A1, “4 -AMINOPICOLINATES AND THEIR USE AS HERBICIDES” (SYNGENTA CROP PROTECTION LLC, priority 2009, published 2012).
